Legend:
[1] = Liquid
[2] = xn = mol fraction of the nth substance listed; details: Liquid, Falling or rolling sphere viscometry, x1 = 1

CCO [ethanol]
viscosity [mPa·s], [1], Falling or rolling sphere viscometry
Details | 100 kPa | 20000 kPa | 40000 kPa | 60000 kPa | 80000 kPa | 100000 kPa
293.15 K | 1.194 | 1.344 | 1.494 | 1.647 | 1.797 | 1.955
313.15 K | 0.826 | 0.948 | 1.059 | 1.171 | 1.282 | 1.392
333.15 K | 0.59 | 0.683 | 0.769 | 0.851 | 0.934 | 1.015
353.15 K | – | 0.51 | 0.574 | 0.636 | 0.699 | 0.763

CCO [ethanol] + Cc1ccccc1
viscosity [mPa·s], [2]
Details | 100 kPa | 20000 kPa | 40000 kPa | 60000 kPa | 80000 kPa | 100000 kPa
293.15 K | 1.194 | 1.344 | 1.494 | 1.647 | 1.797 | 1.955
313.15 K | 0.826 | 0.948 | 1.059 | 1.171 | 1.282 | 1.392
333.15 K | 0.59 | 0.683 | 0.769 | 0.851 | 0.934 | 1.015
353.15 K | – | 0.51 | 0.574 | 0.636 | 0.699 | 0.763

CO [methanol]
viscosity [mPa·s], [1], Capillary tube (Ostwald / Ubbelohde) method
Details | 100 kPa | 20000 kPa | 40000 kPa | 60000 kPa | 80000 kPa | 100000 kPa
293.15 K | 0.583 | 0.646 | 0.706 | 0.767 | 0.83 | 0.894
313.15 K | 0.445 | 0.497 | 0.546 | 0.593 | 0.64 | 0.683
333.15 K | 0.343 | 0.386 | 0.424 | 0.462 | 0.501 | 0.543
353.15 K | – | 0.303 | 0.337 | 0.368 | 0.4 | 0.433

Reference: the NIST ThermoML archive (doi:10.1007/s10765-005-8089-2)
